Measured values from patent US11795135B2, “Prostacyclin compounds, compositions and methods of use thereof” (Insmed Incorporated, priority 2013, dated 2023).
Read-outs that look alike come from different tables or passages of the source.

Assays:
EP2 prostanoid receptor = target: T1, EP2 prostanoid receptor (Homo sapiens, UniProt P43116); assay: GloSensor cAMP assay in CHO-K1 cells co-transfected with the EP2 receptor; assay type: cell-based; settings: for ranking of activity of the treprostinil compounds: kinetic profile, 10 μM and 5 μM, FIG. 21
T1 construct: host or cells: CHO-K1
T1 sequence (P43116 whole entry): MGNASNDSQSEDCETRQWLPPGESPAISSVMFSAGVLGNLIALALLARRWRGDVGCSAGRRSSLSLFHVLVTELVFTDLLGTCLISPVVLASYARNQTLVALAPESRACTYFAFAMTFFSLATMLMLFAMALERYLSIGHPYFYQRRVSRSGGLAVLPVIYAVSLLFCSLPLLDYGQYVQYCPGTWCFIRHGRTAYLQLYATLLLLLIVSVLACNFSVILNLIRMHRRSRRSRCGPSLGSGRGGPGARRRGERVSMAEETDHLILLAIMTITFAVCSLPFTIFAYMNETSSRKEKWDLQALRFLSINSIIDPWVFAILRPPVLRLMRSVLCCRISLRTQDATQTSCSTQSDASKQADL
Text: cAMP is a second messenger involved in signal transduction of G-protein coupled receptors (GPCRs) acting through Gα-s and Gα-i proteins. Because the treprostinil receptor is a GPCR, the assay provides an indication of whether the respective prostacyclin compound (or metabolite thereof) binds its receptor and activates the GPCR cell signaling cascade. The GloSensorTM assay harnesses a genetically modified form of firefly luciferase into which a cAMP-binding protein moiety has been inserted. Upon binding of cAMP, a conformational change is induced leading to increased light output. The EP2 prostanoid receptor was co-transfected with the GloSensorTM plasmid (Promega) into CHO-K1 cells as follows. CHO-K1 cells were harvested when the monoloayer was at 50-90% confluence. First, cells were washed with 5 mL PBS. […] The media was aspirated, and the cell pellet was resuspended in 10 mL of growth media. Cell number was determined using a hemacytometer. Each well of a culture treated 96 well flat bottom plate (Costar, Cat #: 3917) was seeded with 1×10^4 cells per 100 μL antibiotic-free growth media. […] For small scale transfections of up to 20 wells, the pGLoSensor-22F cAMP plasmid (Promega, Cat #: E2301) (2 μg): (EP2) (10 ng) (Origene, Cat #: SC126558):pGEM-3Zf(+) (10 ng) (Promega, Cat #: P2271) ratio was diluted to a final concentration of 12.6 ng/μL (total plasmid) in Opti-MEM I reduced-serum medium (Life Technologies, Cat #: 1985062). Next, 6 μL of FuGENE HD transfection reagent (Promega, Cat #: E2311) was added to 160 μL of diluted plasmid and mixed carefully by gentle pipetting. The complex was incubated at room temperature for 0 to 10 minutes, and then 8 μL of the complex was added per well of a 96 well white assay plate (Costar, Cat #: 3917) and gently mixed without disturbing the cell monolayer. […] Following incubation, cells were treated and analyzed. For larger scale transfections, the aforementioned steps were scaled up accordingly, and cells were frozen following the last incubation. In order to prepare frozen transfected CHO-K1 cells, the media was aspirated from culture flasks and cells were rinsed with 5 mL PBS. […] Cell number was determined using a hemacytometer. The media was aspirated, and the cell pellet was resuspended in freezing media (Millipore, cat #: S-002-5F) at 2.5×10^6 cells/vial. Transfected cells were incubated overnight at -80° C. before transfer to liquid nitrogen for long term storage. […] In preparation for cAMP measurement, the cells were equilibrated with the GloSensor cAMP reagent prior to treatment. For equilibration, the medium was carefully removed from the individual well. Next, 100 μL of equilibration medium ([…] of Glosensor Reagent stock solution (Promega, Cat #: E291), 10% FBS (Hyclone, Cat #: SH30071.03) and 88% CO2 independent medium (Life Technologies, Cat #: 18045088)) was added per well of the 96-well plate, and added to the side of each well. The plate was then incubated for 2 hours at room temperature. A first pre-read measurement was taken using a microplate reader (MicroLumat Plus). Plates were incubated for an additional 10 minutes at room temperature, followed by a second pre-read measurement. […] Following treatment, each plate was read every 5 minutes for the duration of the assay using a microplate reader (MicroLumat Plus). In order to determine the fold change in cAMP relative to the control, the transfection efficiency was first determined by dividing the second pre-read measurement by the average of the corresponding pre-read measurements. Next, the normalized relative light units (RLUs) of the samples were determined by dividing the plate read measurement by the transfection efficiency. The fold change in cAMP relative to the control was then determined by dividing the normalized RLU of the samples by the normalized RLU of the control. The cAMP assay was validated using free treprostinil. […] Luminescence was then measured at room temperature. […]

esterase = assay: Esterase mediated conversion of treprostinil compounds to treprostinil; assay type: in vitro ADME; settings: incubation with esterase at 37° C., 1 hour (FIG. 28, 30)
Protocol: A set of studies was conducted to determine the conversion kinetics to treprostinil of linear treprostinil compounds versus various branched treprostinil compounds. 0.4 mM of linear C8-TR or branched treprostinil compounds 2-dimethyl-1-propanyl-TR, 3,3-dimethyl-1-butanyl-TR, 2-ethyl-1-butanyl-TR, 5-nonanyl-TR, or 3-pentanyl-TR (see below for structures) were incubated with 0.2 U esterase at 37° C. for 1 hour, and the conversion (% of total) was calculated at 0.25, 0.5, 0.75, or 1 hour incubation time. • C8-TR (i.e., the compound of Formula (A) wherein
The conversion is relative to the C8-TR compound and conversion was measured at 1 hr. post esterase incubation. • C8-TR (i.e., the compound of Formula (A) wherein
Conversion was measured at 1 hr. post esterase incubation. • 4C7-TR (i.e., the compound of Formula (A) wherein

[1] = Treprostinil alkyl ester conversion to treprostinil in rat lung tissue homogenate; assay type: in vitro ADME; settings: 37° C., 200 nM, 4 hours, 10 mg/mL of protein
Protocol: (§1) Treprostinil alkyl ester conversion to treprostinil was also measured in the presence of rat, dog and monkey lung tissue homogenate at 37° C. Here, data were calculated based on fit of exponential increase to the maximum (experiments performed in duplicate). The results of this study are provided below in Table 2A and FIG. 37. […] Both FIG. 37 experiments (left and right graphs) were performed in duplicate and the lines represent nonlinear exponential regression assuming 1 phase decay.

[2] = Treprostinil alkyl ester conversion to treprostinil in dog lung tissue homogenate; assay type: in vitro ADME; settings: 37° C., 200 nM, 4 hours, 10 mg/mL of protein
Protocol: as §1

[3] = Treprostinil alkyl ester conversion to treprostinil in monkey lung tissue homogenate; assay type: in vitro ADME; settings: 37° C., 200 nM, 4 hours, 10 mg/mL of protein
Protocol: as §1

CHO-K1 cells = assay: CHO-K1 cell proliferation assay (Presto Blue)
Protocol: CHO-K1 cells were harvested when the cell monolayer was 50-90% confluent (use passage 4-11). Media was aspirated out of the flask, and cells were rinsed with 2 mL of F12 media. Next, 1 mL of pre-warmed (37° C.) 0.25% trypsin-EDTA (Life Technologies, Cat #: 25300054) was added, and cells were dislodged from the flask by tapping it on the side. Complete growth media (F12 (Life Technologies, Cat #: 31765092)+10% FBS (Hyclone, Cat #: SH30071.03)+1× Pen-Strep (Life Technologies, cat #15140-122) was then added at a volume of 10 mL. Cells were centrifuged at 250×g for 5 minutes at room temperature, and the media was aspirated. The cell pellet was resuspended in 10 mL complete growth media. Cell number was determined using a hemacytometer. Cells were then seeded at 2000 cells per well of a 96-well plate in 100 μL of complete growth media. The plate was incubated overnight at 37° C. and 5% CO2 in a water-jacketed incubator.
The next day, 80 μL of fresh complete media was added to each well, and CHO-K1 cells were challenged with treprostinil compound and composition treatments. The working solutions were prepared at 10× concentration, and following 2 fold serial dilutions, 20 μL aliquots were added per well to arrive at a final 1× concentration. Following a 48 hour incubation at 37° C. and 5% CO2 in a water-jacketed incubator, the inhibitory effect on cell proliferation was determined. Plates were analyzed using 20 μL of Presto Blue reagent (Life Technologies, cat #: A13262) per well. The reagent was mixed, and plates were incubated for 1 hour at 37° C. and 5% CO2 in a water-jacketed incubator. Plates were read using either a CytoFluor Series 4000 (PerSeptive BioSystems) or Synergy Neo microplate reader (BioTek) with emission λ: 590 nm and excitation λ: 560 nm.
at concentrations ranging from 0.55 μM to 125 μM. Following a 48 hour incubation period, the inhibitory effect of the treprostinil derivative compositions on cell proliferation was determined.
C2, C3, C4, C5, C6, C8, C10 or Cu straight chain alkyl, at dosages ranging from 0.098 μM to 25 μM. Following a 48 hour incubation period, the inhibitory effect on cell proliferation was determined.
Following a 72 hour incubation period, the inhibitory effect on cell proliferation was determined. Following a 48 hour incubation period, the inhibitory effect on cell proliferation was determined.
Similarly, CHO-K1 cells were challenged with the treprostinil compositions T612 (R2=C2), T613 (R2=C8) at concentrations ranging from 1.41 μM to 180 μM.

[4] = test system: Rat alveolar NR8383 cells; assay: NR8383 cell proliferation assay (Presto Blue); assay type: cell-based
Protocol: Rat alveolar NR8383 cells were harvested when the monolayer was 50-90% confluent (use passage 5-11). Because the NR8383 cells include both adherent and non-adherent cells, media was transferred to a 50 mL Falcon tube. To obtain the cells remaining in the flask, 2 mL of plain media was added, and the remaining cells were scraped out of the 75 cm^2 flask with a cell scraper and added to the 50 mL tube. […] SH30071.03)+1×Pen-Strep (Life Technologies, cat #: 15410-122)). Cell number was determined using a hemacytometer. […] Measurements and calculations were made as described above for the CHO-K1 cells.

[5] = Particle size characterization of treprostinil compositions (QELS); assay type: physicochemical; settings: particles of compositions comprising the alkyl ester, FIG. 2
Protocol: All particle size measurements were performed using a Wyatt Technology Mobius™ Zeta Potential/Particle Sizing Instrument in Quasi-elastic light scattering (QELS) mode. Composition aliquots were diluted 10-fold in pre-filtered (0.02 μm pore filter) ultrapure of deionized H2O. Light scattering data was collected and converted into particle size and size distribution using Dynamics® v. […] Reported average particle size diameter is based on the cumulants model, which mathematically fits particle diffusion constants (determined by the raw scattering intensities of particles in a suspension) to obtain the particle size mean and a distribution of particle sizes around the mean diameter.
Particle uniformity was determined using the software-calculated polydispersity (% PD). Polydispersity is defined as the standard deviation of the particle size distribution from the mean particle size value. % PD normalizes the polydispersity to the mean diameter by dividing by the mean size and multiplying by 100. These parameters indicate whether a particle suspension has one or more size populations of particles (monomodal versus multimodal). […]
Dynamics® polydispersity parameter represents a monodisperse population of particles if % PD≤15. A calculated % PD≥57% represents a polydisperse population of particles.

[6] = unformulated alkyl esters, 48 hour incubation
[7] = unformulated alkyl esters, 72 hour incubation

Molecule | ranking of activity of the treprostinil compounds (EP2 prostanoid receptor) | Rate of treprostinil alkyl ester conversion [1] | Rate of treprostinil alkyl ester conversion [2] | Rate of treprostinil alkyl ester conversion [3] | Effect on cell proliferation, CHO-K1 Cells (0.195 μM-25 μM) (CHO-K1 cells; [6]) | Effect on cell proliferation, NR8383 Cells (0.195 μM-25 μM) [4, 7] | polydispersity (% PD) [5] | other results
CCCCC[C@H](O)CC[C@@H]1[C@H]2Cc3cccc(OCC(=O)OC(CCCC)CCCC)c3C[C@H]2C[C@H]1O [Compound 5C9-TR, 5-nonanyl-treprostinil] | C12-TR>C14-TR>5-nonanyl-TR>C16-TR | – | – | – | – | – | – | esterase mediated conversion rate to treprostinil (comparison) (esterase): slower conversion rate than the linear compound C8-TR; esterase mediated conversion rate to treprostinil (comparison) (esterase; listed as 5-nonanyl-TR): slower conversion rate than linear C8-TR
CCCCCCCCOC(=O)COc1cccc2c1C[C@H]1C[C@@H](O)[C@H](CC[C@@H](O)CCCCC)[C@H]1C2 [Compound C8-TR, treprostinil octyl ester] | – | 32.5 nmOL/h * g of protein | 49.8 nmOL/h * g of protein | 17.3 nmOL/h * g of protein | showed inhibition of cell proliferation | showed some inhibition of cell proliferation | – | –
CCCCCCCCCCCCOC(=O)COc1cccc2c1C[C@H]1C[C@@H](O)[C@H](CC[C@@H](O)CCCCC)[C@H]1C2 [Compound C12-TR, dodecyl-treprostinil] | – | 1.1 nmOL/h * g of protein | 2.2 nmOL/h * g of protein | 0.6 nmOL/h * g of protein | No detectable cell inhibition | No detectable cell inhibition | – | –
CCCCCCCCCCCCCCOC(=O)COc1cccc2c1C[C@H]1C[C@@H](O)[C@H](CC[C@@H](O)CCCCC)[C@H]1C2 [Compound C14-TR, tetradecyl-treprostinil] | C12-TR>C14-TR>5-nonanyl-TR>C16-TR | 0.4 nmOL/h * g of protein | – | – | – | – | around 15% | –
treprostinil decyl ester [Compound C10-TR] | – | – | – | – | – | – | around 15% | duration of cAMP levels compared with free treprostinil and the C6, C8, and C12 derivatives (EP2 prostanoid receptor; 5 μM, FIG. 4 and FIG. 5): sustained significantly longer; cAMP levels compared with free treprostinil (EP2 prostanoid receptor; 10 μM, composition, FIG. 3A): equivalent to free treprostinil; cAMP levels sustained for (EP2 prostanoid receptor; 10 μM, composition, FIG. 3A): at least 6 hours; cAMP response compared with the response induced by free treprostinil (EP2 prostanoid receptor; compositions, 5 μM, FIG. 4): greater than or equivalent to the response induced by free treprostinil; cAMP response level (EP2 prostanoid receptor; unformulated compounds, 5 μM, FIG. 5): equivalent to free treprostinil; Effect on cell proliferation, CHO-K1 Cells (0.195 μM-25 μM) (CHO-K1 cells): No detectable cell inhibition; Effect on cell proliferation, NR8383 Cells (0.195 μM-25 μM) [4]: No detectable cell inhibition
